Measured values as given in patent US10065941B2, “Aminotriazine derivative and pharmaceutical composition comprising the same” (Shionogi & Co., Ltd., priority 2013, dated 2018).

Molecular target: human P2X3 receptor (Homo sapiens (Human), UniProt P56373)
Assay: Evaluation of human P2X3 receptor inhibitory activity (Test Example 1)
Assay type: cell-based
Conditions: C6BU-1 cell transfected with human P2X3 receptor gene, FLIPR 384
How it was run: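 FLIPR calcium read-out: signal taken as peak fluorescence after ATP addition divided by starting fluorescence, and IC50 calculated from it. Compound added 5 min before 150 nM ATP solution (pre-dispense stock) to Fluo-3-AM-loaded C6BU-1 cells stably transfected with human P2X3; HEPES buffer pH 7.5 with probenecid.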

Sequence of human P2X3 receptor (P56373 whole entry): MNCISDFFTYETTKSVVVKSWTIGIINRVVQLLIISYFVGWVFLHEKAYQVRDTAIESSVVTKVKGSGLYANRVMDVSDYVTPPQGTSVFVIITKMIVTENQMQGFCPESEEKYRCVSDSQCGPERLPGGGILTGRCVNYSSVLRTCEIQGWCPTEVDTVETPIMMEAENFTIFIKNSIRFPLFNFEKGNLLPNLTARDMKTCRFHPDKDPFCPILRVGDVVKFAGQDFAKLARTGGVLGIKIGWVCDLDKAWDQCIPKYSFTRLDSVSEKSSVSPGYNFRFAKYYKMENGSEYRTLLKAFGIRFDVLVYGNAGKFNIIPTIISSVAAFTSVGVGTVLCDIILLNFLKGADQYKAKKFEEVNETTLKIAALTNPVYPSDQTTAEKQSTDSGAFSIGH

| SMILES | IC50 |
| --- | --- |
| COC(=O)C(C)(C)Cn1c(=O)[nH]/c(=N\c2ccc(O[C@H](C)C(F)(F)F)c(F)c2)n(Cc2ccc(Cl)cc2)c1=O [Compound R-091] | 108 nM |
| CC(C)(Cn1c(=O)[nH]/c(=N\c2ccc(Oc3cc(Cl)ncn3)cc2)n(Cc2ccc(Cl)cc2)c1=O)C(=O)O [Compound R-092] | 10 nM |
| C[C@@H](Cn1c(=O)[nH]/c(=N\c2ccc(O[C@H](C)C(F)(F)F)c(F)c2)n(Cc2ccc(Cl)cc2)c1=O)C(=O)O [Compound R-093] | 13 nM |
| C[C@@H](Cn1c(=O)[nH]/c(=N\c2ccc(O[C@H](C)C(F)(F)F)c(O[C@H](C)C(F)(F)F)c2)n(Cc2ccc(Cl)cc2)c1=O)C(=O)O [Compound R-094] | 29 nM |
| C[C@@H](Oc1ccc(/N=c2\[nH]c(=O)n(CC(C)(C)C(=O)O)c(=O)n2Cc2ccc(Cl)cc2)cc1F)C(F)(F)F [Compound R-095] | 45 nM |
| C[C@@H](Oc1ccc(/N=c2\[nH]c(=O)n(CC(C)(C)C(=O)O)c(=O)n2Cc2ccc(Cl)cc2)cc1O[C@H](C)C(F)(F)F)C(F)(F)F [Compound R-096] | 156 nM |
| COC(=O)[C@@H](C)Cn1c(=O)[nH]/c(=N\c2ccc(O[C@H](C)C(F)(F)F)c(C)c2)n(Cc2ccc(Cl)cc2)c1=O [Compound R-097] | 212 nM |
| Cc1cc(/N=c2\[nH]c(=O)n(C[C@H](C)C(=O)O)c(=O)n2Cc2ccc(Cl)cc2)ccc1O[C@H](C)C(F)(F)F [Compound R-098] | 80 nM |
| COC(=O)[C@@H](C)Cn1c(=O)[nH]/c(=N\c2ccc(Oc3ccnc(C#N)c3)cc2)n(Cc2ccc(Cl)cc2)c1=O [Compound R-099] | 4 nM |
| COC(=O)C(C)(C)Cn1c(=O)[nH]/c(=N\c2ccc(Oc3ccnc(C#N)c3)cc2)n(Cc2ccc(Cl)cc2)c1=O [Compound R-100] | 6 nM |
| COC(=O)[C@@H](C)Cn1c(=O)[nH]/c(=N\c2ccc(N3CCOCC3)c(C)c2)n(Cc2ccc(Cl)cc2)c1=O [Compound R-101] | 201 nM |
| COC(=O)C(C)(C)Cn1c(=O)[nH]/c(=N\c2ccc(N3CCOCC3)c(C)c2)n(Cc2ccc(Cl)cc2)c1=O [Compound R-102] | 100 nM |
| COC(=O)C(C)(C)Cn1c(=O)[nH]/c(=N\c2ccc(Oc3ccnc(C(=O)O)c3)cc2)n(Cc2ccc(Cl)cc2)c1=O [Compound R-105] | 7 nM |
| COC(=O)[C@@H](C)Cn1c(=O)[nH]/c(=N\c2ccc(N3CCOCC3)c(F)c2)n(Cc2ccc(Cl)cc2)c1=O [Compound R-106] | 379 nM |
| COC(=O)C(C)(C)Cn1c(=O)[nH]/c(=N\c2ccc(N3CCOCC3)c(F)c2)n(Cc2ccc(Cl)cc2)c1=O [Compound R-107] | 217 nM |
| CC(C)(Cn1c(=O)[nH]/c(=N\c2ccc(Oc3ccnc(C#N)c3)cc2)n(Cc2ccc(Cl)cc2)c1=O)C(=O)O [Compound R-108] | 8 nM |
| COC(=O)[C@@H](C)Cn1c(=O)[nH]/c(=N\c2ccc(Oc3cnccn3)c(C)c2)n(Cc2ccc(Cl)cc2)c1=O [Compound R-111] | 5 nM |
| COC(=O)[C@@H](C)Cn1c(=O)[nH]/c(=N\c2ccc(Oc3noc(C)n3)cc2)n(Cc2ccc(Cl)cc2)c1=O [Compound R-112] | 17 nM |
| COC(=O)C(C)(C)Cn1c(=O)[nH]/c(=N\c2ccc(Oc3noc(C)n3)cc2)n(Cc2ccc(Cl)cc2)c1=O [Compound R-113] | 13 nM |
| Cc1nc(Oc2ccc(/N=c3\[nH]c(=O)n(C[C@H](C)C(=O)O)c(=O)n3Cc3ccc(Cl)cc3)cc2)no1 [Compound R-114] | 39 nM |
| Cc1nc(Oc2ccc(/N=c3\[nH]c(=O)n(CC(C)(C)C(=O)O)c(=O)n3Cc3ccc(Cl)cc3)cc2)no1 [Compound R-115] | 65 nM |
| Cc1cc(/N=c2\[nH]c(=O)n(C[C@H](C)C(=O)O)c(=O)n2Cc2ccc(Cl)cc2)ccc1Oc1cncc(F)c1 [Compound R-116] | 5 nM |
| C[C@@H](Cn1c(=O)[nH]/c(=N\c2ccc(Oc3cncc(F)c3)c(F)c2)n(Cc2ccc(Cl)cc2)c1=O)C(=O)O [Compound R-117] | 6 nM |
| Cc1cc(/N=c2\[nH]c(=O)n(CC(C)(C)C(=O)O)c(=O)n2Cc2ccc(Cl)cc2)ccc1Oc1cncc(F)c1 [Compound R-118] | 5 nM |
| COC(=O)[C@@H](C)Cn1c(=O)[nH]/c(=N\c2ccc(Oc3cccnn3)cc2)n(Cc2ccc(Cl)cc2)c1=O [Compound R-119] | 5 nM |
| C[C@@H](Cn1c(=O)[nH]/c(=N\c2ccc(Oc3cccnn3)cc2)n(Cc2ccc(Cl)cc2)c1=O)C(=O)O [Compound R-120] | 8 nM |
| CC(C)(Cn1c(=O)[nH]/c(=N\c2ccc(Oc3cncc(F)c3)c(F)c2)n(Cc2ccc(Cl)cc2)c1=O)C(=O)O [Compound R-121] | 5 nM |
| COC(=O)[C@H](C)[C@H](C)n1c(=O)[nH]/c(=N\c2ccc(Oc3cnccn3)c(F)c2)n(Cc2ccc(Cl)cc2)c1=O [Compound R-122] | 13 nM |
| C[C@@H](Cn1c(=O)[nH]/c(=N\c2ccc(Oc3ccnc(C#N)c3)cc2)n(Cc2ccc(Cl)cc2)c1=O)C(=O)O [Compound R-123] | 5 nM |
| C[C@@H](Cn1c(=O)[nH]/c(=N\c2ccc(Oc3cc(Cl)ncn3)cc2)n(Cc2ccc(Cl)cc2)c1=O)C(=O)O [Compound R-124] | 9 nM |
